The source of these data is patent publication US20120270928A1, “MICRORNA COMPOUNDS AND METHODS FOR MODULATING MIR-21 ACTIVITY” (REGULUS THERAPEUTICS INC., priority 2011, published 2012).

Several values for one entry are separate records, joined by “and”; a condition that tells them apart may be missing. Identical values can stand only once.

Data set [1] concerns IR/Nx model mice. Kind of data set: Survival rate of IR/Nx model mice two days after nephrectomy. Type of data set: in vivo. As for the experimental part: The survival rate of IR/Nx model mice two days after nephrectomy was determined across six different experiments to determine if administration of anti-miR-21 compounds increases survival. In the first three experiments, anti-miR-21 compound was administered on days 5, 6, and 7 after ischemia reperfusion injury, and nephrectomy occurred on day 10 or day 11. In the second three experiments, anti-miR-21 compound was administered on days 2, 3, and 4, and nephrecromy occurred on day 7.

Data set [2] deals with model of ischemia reperfusion injury (IRI). Kind of data set: Unilateral IRI model: collagen area fraction of kidney tissue. It is filed as in vivo, mouse. The note with it: for reduction in collagen area fraction (significance): IRI; for Collagen Area Fraction (#) Mean: group mean; for Collagen Area Fraction (#): 20 mg/kg. Here is the method:
A model of ischemia reperfusion injury (IRI) is created in the mouse through unilateral or bilateral clamping of kidney arteries, which leads to tubule damage, inflammation, and fibrosis. Kidney dysfunction can occur either early (<5 days) or late (>7 days) in this model, with the early time points useful to test candidate agents for the treatment of acute kidney injury, and the later time points useful to model chronic fibrosis.
Anti-miR-21 compounds were tested in the unilateral IRI model. Unilateral IRI was induced for a period of 30 minutes. Treatment groups were as follows: sham IRI procedure; IRI with PBS administered subcutaneously; IRI with anti-miR-21 compound 25070 administered intraperitoneally at a dose of 20 mg/kg; the 2′-fluoro/2′-MOE modified anti-miR-21 25919 administered intraperitoneally at a dose of 20 mg/kg; and a 2′-fluoro/2′ modified mismatch anti-miR-21 (having three mismatches to the sequence of miR-21) 25319 administered intraperitoneally at a dose of 20 mg/kg. PBS or anti-miR compound was administered on days 5, 6, and 7 following IRI, and animals were sacrificed 14 days after IRI. As anti-miR compound is administered 5 days following the injury to the kidney, or later, when fibrosis has already occurred to some extent, this treatment regimen is considered a therapeutic regimen, rather than a prophylactic regimen.
Kidney tissue was collected for analysis of collagen 1A1 and collagen 3A1 expression (shown in Table 0), and collagen area fraction (shown in Table P).
A similar study was performed with the same treatment groups and additional days of treatment. In this study, treatments were administered intraperitoneally at days 5, 6, 7, 14, and 21 following the IRI procedure Animals were sacrificed on Day 27, and kidney tissue was collected for analysis of collagen 1A1 and collagen 3A1 expression, as well as collagen area fraction.

The test system of data set [3] is UUO model of kidney fibrosis. Kind of data set: UUO model: collagen area fraction of kidney tissue (picrosirius red histology). It is filed as in vivo, mice. Particulars: Table N, 25070 20 mg/kg s.c. As for the experimental part:
Control treatment groups included UUO only (sham) and UUO with PBS administered subcutaneously. An additional control group included UUO with Tween-MC/20 carrier perorally. 25070 administered subcutaneously at dose of 20 mg/kg at 5 days prior to, 2 days prior to, and 3 days after, the UUO procedure. Irbesartan was administered perorally on daily on days 0 through 7 following the UUO procedure. Animals were sacrificed on Day 10 following the UUO procedure. Kidney tissue was collected for measurement of collagen 1A1 and collagen 3A1 expression.
The ‘collagen area fraction’ is measured histologically through quantitative image processing of the area of kidney tissue that is stained red by the picrosirius red stain; the percent detected as red is normalized by the area of kidney section.

For data set [4], the system named is UUO model of kidney fibrosis. Kind of data set: Unilateral ureteral obstruction (UUO) model of kidney fibrosis: kidney collagen 1A1 and collagen 3A1 expression by real-time PCR. Type of data set: in vivo, mice. Particulars: for Collagen 3A1 (Normalized Expression) Mean / Collagen 1A1 (Normalized Expression) Mean: group mean; for Collagen 1A1 (Normalized Expression) / Collagen 3A1 (Normalized Expression): individual animals, 20 mg/kg. Put shortly:
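Fibrosis induced by unilateral ureter ligation, groups of 8; anti-miR-21 compounds dosed at 20 mg/kg around surgery (days −3, −1, +5 or −5, −3, +3; repeat study subcutaneous at −5, −2, +3). Kidneys taken on day 10 or 11; Col1A1 and Col3A1 mRNA measured by real-time PCR, normalized to GAPDH and, in one study, also to sham.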
(In qPCR the cycle at which signal appears reflects the starting amount.)

[5] abbreviates: Table P, unilateral IRI, 20 mg/kg intraperitoneally on days 5, 6, 7, day 14, IRI-PBS mean 15.1.
Where [6] appears, read: Table P, individual animals, unilateral IRI, 20 mg/kg intraperitoneally on days 5, 6, 7, day 14.
Where [7] appears, read: unilateral IRI mouse, 20 mg/kg intraperitoneally on days 5, 6, 7, 14, and 21, sacrificed Day 27.
The mark [8] stands for this setting: individual animals (not same as PCR), unilateral IRI mouse, 20 mg/kg intraperitoneally on days 5, 6, 7, 14, and 21, sacrificed Day 27.
Setting [9] is: Table K, UUO mice, 20 mg/kg at days -3, -1, +5, kidney at day 11, UUO-PBS mean 87.2.
The mark [10] stands for this setting: Table K, UUO mice, 20 mg/kg at days -3, -1, +5, kidney at day 11, UUO-PBS mean 114.9.
Setting [11] is: Table K, UUO mice, 20 mg/kg at days -3, -1, +5 (prophylactic), kidney at day 11, real-time PCR normalized to GAPDH then sham.
Setting [12] is: Table L, repeat UUO study, 20 mg/kg SC, prophylactic.
Where [13] appears, read: Table M, UUO, 25070 20 mg/kg s.c. 5 and 2 days prior to and 3 days after UUO, irbesartan PO daily days 0-7, sacrifice Day 10.
[14] abbreviates: meta-analysis of UUO studies, 20 mg/kg at days -3, -1, +5, kidney at day 11.
The mark [15] stands for this setting: repeated UUO study, subcutaneously 20 mg/kg, prophylactic.

As to “AECSATCSAGTCSTGAUSAAGCSTAE (ACATCAGTCTGATAAGCTA; modified nucleosides, phosphorothioate linkages, chemistry not fully specified) [Compound 25070]”, in data set [1] (Studies 1-3 pooled, Nx day 10/11, dosing days 5, 6, and 7), the “Survival rate 2 days after Nx, Summary (day 10/11 Nx)” value was 80% (29/36). Moreover, the “Survival rate 2 days after Nx, Summary (day 7 Nx)” value in data set [1] (Studies 4-6 pooled, Nx day 7, dosing days 2, 3, and 4) was 69% (25/36). Also, the “Survival rate 2 days after Nx” value in data set [1] (Study 1, Nx Day 10, 30 mg/kg on days 5, 6, and 7 after IR) came to 91.7%; in data set [1] (Study 2, Nx Day 11, 30 mg/kg on days 5, 6, and 7 after IR), 83.3%; in data set [1] (Study 3, Nx Day 10, 20 mg/kg on days 5, 6, and 7 after IR), 66.6%; in data set [1] (Study 4, Nx Day 7, 20 mg/kg on days 2, 3, and 4 after IR), 75%; in data set [1] (Study 5, Nx Day 7, 20 mg/kg on days 2, 3, and 4 after IR), 66.7%; in data set [1] (Study 6, Nx Day 7, 20 mg/kg on days 2, 3, and 4 after IR), 66.7%. For the same sequence, the “survival rate two days after nephrectomy” value turned out to be 80% in data set [1] (first three experiments, dosing days 5, 6, 7, nephrectomy on day 10 or day 11) and 69% in data set [1] (second three experiments, dosing days 2, 3, 4, nephrectomy on day 7). Also, the “reduction in collagen area fraction (significance)” value in data set [2] (20 mg/kg intraperitoneally on days 5, 6, and 7, sacrifice 14 days after IRI) is on record as “statistically significant reduction”; in data set [2] (intraperitoneally at days 5, 6, 7, 14, and 21, sacrifice Day 27), “statistically significant reduction”. Besides, the “Collagen Area Fraction (#) Mean” value in data set [2] (setting [5]) is listed as 9.7 #; in data set [2] (setting [7]) it was 10.1. The “Collagen Area Fraction (#)” value in data set [2] (setting [6]) was 10.266 # and 11.772 # and 10.267 # and 8.404 # and 7.862 # and 6.975 # and 8.381 # and 13.773 #; in data set [2] (setting [8]) it was 7.354 and 9.241 and 9.589 and 11.573 and 8.182 and 10.695 and 13.978 and 10.12. For the same sequence, in data set [3] (group mean, irbesartan PO, Day 10, UUO-PBS 11.1, Tween/MC vehicle 8.0), the “Collagen Area Fraction (%) Mean” value came out at 8.0%. In data set [3] (individual animals, irbesartan PO daily days 0-7, Day 10, picrosirius red, 20 mg/kg), the “Collagen Area Fraction (%)” value was 7.632% and 9.937% and 8.015% and 6.611% and 6.319% and 11.272% and 6.803% and 7.405%. For the same sequence, the “Collagen 3A1 (Normalized Expression) Mean” value in data set [4] (setting [9]) came to 55.5; in data set [4] (Table L, repeat UUO study, 20 mg/kg SC, prophylactic, UUO-PBS mean 58.8), 42.4; in data set [4] (Table M, UUO, 25070 20 mg/kg s.c., irbesartan PO daily days 0-7, Day 10, UUO-PBS 93.2, Tween/MC vehicle 132.4), 53.7. The “Collagen 1A1 (Normalized Expression) Mean” value in data set [4] (setting [10]) stood at 81.0; in data set [4] (Table L, repeat UUO study, 20 mg/kg SC, prophylactic, UUO-PBS mean 74.3), 30.2; in data set [4] (Table M, UUO, 25070 20 mg/kg s.c., irbesartan PO daily days 0-7, Day 10, UUO-PBS 129.6, Tween/MC vehicle 150.2), 64.2. Also, the “Collagen 1A1 (Normalized Expression)” value in data set [4] (setting [11]) was 67.7 and 97.7 and 88.8 and 95.9 and 71.4 and 44.5 and 73.0 and 109.4; in data set [4] (setting [12]), 13.9 and 9.2 and 32.3 and 57.2 and 47.6 and 26.1 and 35.0 and 20.4; in data set [4] (setting [13]), 87.5 and 67.4 and 22.2 and 61.9 and 42.0 and 69.2 and 68.4 and 95.2. Further, the “Collagen 3A1 (Normalized Expression)” value in data set [4] (setting [11]) was 36.4 and 75.6 and 47.3 and 55.5 and 63.3 and 28.5 and 64.2 and 72.9; in data set [4] (setting [12]), 34.9 and 47.4 and 25.3 and 38.0 and 47.9 and 54.3 and 56.1 and 35.2; in data set [4] (setting [13]), 38.6 and 56.9 and 77.2 and 50.7 and 76.4 and 49.7 and 44.3 and 35.9. Also, the “reduction in Col3a1 expression (significance)” value in data set [4] (UUO, comparison with irbesartan, sacrifice Day 10) was “statistically significant reductions”. In addition, the “reduction in Col1A1 expression relative to saline-treated animals (significance)” value in data set [4] (UUO, comparison with irbesartan, sacrifice Day 10, p<0.05 by one-way ANOVA) is “statistically significant reduction”. Moreover, the “reduction in collagen expression (in words)” value in data set [4] (meta-analysis of UUO studies, 20 mg/kg at days -3, -1, +5) is recorded as “greatest potency”. For the same sequence, the “inhibition of collagen 1A1” value in data set [4] (setting [14]) is reported as 40%. Also, the “inhibition of collagen 3A1” value in data set [4] (setting [14]) is 30%. Further, the “collagen 1A1 expression (in words)” value in data set [4] (setting [15]) was “potent inhibitor of collagen 1A1 and collagen 3A1 expression”. Moreover, the “collagen 3A1 expression (in words)” value in data set [4] (setting [15]) is “potent inhibitor of collagen 1A1 and collagen 3A1 expression”.
“UECEAFAFCFAFUFCFAFGFUFCEUEGEAFUFAFAFGFCFUEAE (antisense TCAACATCAGTCTGATAAGCTA; listed as DNA, chemistry not fully specified) [Compound 25919, reference compound]”: the “Collagen Area Fraction (#) Mean” value in data set [2] (setting [5]) is given as 8.2 #; in data set [2] (setting [7]), 12.8. The “Collagen Area Fraction (#)” value in data set [2] (setting [6]) is 7.093 # and 8.254 # and 8.095 # and 8.559 # and 8.681 # and 6.31 # and 8.416 # and 9.905 #; in data set [2] (setting [8]) it was 11.882 and 9.755 and 9.506 and 12.654 and 20.319 and 11.551 and 12.224 and 14.468. Moreover, the “Collagen 3A1 (Normalized Expression) Mean” value in data set [4] (setting [9]) is given as 56.9. Moreover, the “Collagen 1A1 (Normalized Expression) Mean” value in data set [4] (setting [10]) was determined as 86.6. The “Collagen 1A1 (Normalized Expression)” value in data set [4] (setting [11]) is 150.2 and 54.2 and 84.6 and 67.7 and 78.7 and 62.2 and 89.2 and 106.2. The “Collagen 3A1 (Normalized Expression)” value in data set [4] (setting [11]) was 67.1 and 33.9 and 87.6 and 47.3 and 67.7 and 46.7 and 47.0 and 57.8.
